# Laboratory results published in patent publication US20040072744A1, “Synthetic peptide as treatment for down's syndrome and schizophrenia” (priority 2002, published 2004).
# Entries after “also recorded” stand apart in the source; their conditions may differ.
# B1: NGF (protein)
# chain: EDHPVHNLGEHSVCDSVSAWVTKTTATDIKGNTVTVMENVNLDNKVYKEYFFETKCKNPNPEPSGCRGIDSSHWNSYCTETDTFIKALTMEGNQASWRFIRIDTACVCVITKKTGN
# Assays:
# Alzheimer's patients = conditions: oral administration, human clinical trials; cited from earlier work
# simian rotavirus (SA11) = assay: Kinetics of replication of SA11 virus in MA104 cells in serum free medium with supplement; format: cell-based; conditions: 1 μg/ml trypsin; for SA11 virus titer Day 2: 1 μg/ml NGF or 5 μg/ml Adesh-10, day 2; for SA11 virus titer Day 4: 1 μg/ml NGF or 5 μg/ml Adesh-10, day 4; for SA11 virus titer Day 6: 1 μg/ml NGF or 5 μg/ml Adesh-10, day 6; for SA11 virus titer Day 8: 1 μg/ml NGF or 5 μg/ml Adesh-10, day 8
# [1] = test system: influenza virus A/TAI strain; assay: Kinetics of replication of influenza A/TAI virus in MDCK cells in serum free medium with supplement; format: cell-based; conditions: 1 μg/ml trypsin; for A/TA1 virus titer Day 2: 1 μg/ml NGF or 5 μg/ml Adesh-10, day 2; for A/TA1 virus titer Day 4: 1 μg/ml NGF or 5 μg/ml Adesh-10, day 4; for A/TA1 virus titer Day 6: 1 μg/ml NGF or 5 μg/ml Adesh-10, day 6
# PC12 cells = assay: Neurite production on PC12 cells; format: cell-based, rat
# Method: (§1) Adesh-10 (SEQ. ID. NO.: 2) is considered exemplary of the Adesh family of peptides and has been studied and tested to illustrate the invention. Venom derived NGF produced neurites on PC12 cells at 5 ng/ml while the concentration of Adesh-10 required was 1 μg/ml. NGF is toxic to PC 12 cells at the concentration of 5 μg/ml, while Adesh-10 is not toxic up to 100 μg/ml.
# PC 12 cells = assay: Toxicity to PC12 cells; format: cell-based, rat
# Method: as §1
# NGF = NGF content in organ homogenates of orally treated mice by ELISA using anti-NGF; format: in vivo, Balb/c male mice; conditions: oral 100 μg/mouse for 7 days
# Method: One year old Balb/c male mice (considered to be retired and non-productive) were given Adesh-10 orally for seven consecutive days, and the control set of mice received PBS. Two days after the completion of the treatment, the mice were sacrificed for organs. Organ homogenates were assayed for NGF content by simple enzyme-linked immunosorbent assay (ELISA), using anti-NGF.
# Preparation of organ homogenates: Mice were used in compliance with U.S. Public Health Service policy on humane care and use of animals. One-year-old Balb/c male mice were divided into two groups each consisting of five. Mice in group I were given orally 100 μg/mouse in 50 μl volume of Adesh-10, the synthetic analog of NGF for seven consecutive days. The group II mice were given similar volume of PBS. Two days after the completion of the treatment with Adesh-10 or PBS the mice were sacrificed for organs. Organs from five of each group of mice were collected and one type of organ from five were pooled. The pool of the organs was homogenized in PBS by manual homogenizer. The homogenates were centrifuged and the supernatants for each pool organ were separated. Protein concentration for each supernatant was measured on spectrophotometer using a protein kit from Bio-Rad (USA catalogue 500-0006). The protein concentrations of the supernatants were adjusted to 100 μg/ml with PBS, as stocks for further testing.
# Enzyme-linked immunosorbent assay (ELISA): ELISA tests were carried out in 96 well microtiter plates. The reagents for ELISA were purchased from Sigma-Aldrich Co. The stocks from mouse organs were diluted with carbonate-bicarbonate buffer of pH 9.4 to 10 μg/ml as coating antigen for ELISA. The wells of the plate were coated with antigen, 100 μl/well. The plate was left at room temperature (RT) overnight, after which it was emptied and washed three times (3×) with PBS. The wells were blocked with 250 μl/well of 3% fish skin gelatin. After 30 min. the plate was emptied and washed 3× with PBS. Anti-NGF made in rabbit was diluted from 1:300 in gelatin. Three wells received 100 μl of each dilution of anti-serum. Two-fold diluted anti-sera were used from 1:300 in triplicate. The antigen controls without antibody were incorporated. The plate was incubated at 37° C. in a humid incubator for 1 hr after which the plate was washed 3× with PBS. The horseradish peroxidase conjugated with rabbit IgG 100 μl/well were reacted, for 30 min. Finally, after washing, the wells of the plate were reacted with O-phenylenediamine-HCl (OPD) for color development. The plate was read after 30 min. and the OD was recorded at […]. The average of triplicate readings was expressed as ELISA titer/100 μl.
# One year old Balb/c male mice were used for this research. Ten mice were used consisting of two groups five of each. Mice in group I were given orally 100 μg/mouse in 50 μl volume of Adesh-10, synthetic analog of NGF for seven consecutive days. The group II mice were given similar volume of PBS. Two days after the completion of the treatment the mice were sacrificed for organs. Organ homogenates were assayed for NGF by ELISA.
# Down syndrome children = assay: Treatment of Down syndrome children; format: in vivo, human; conditions: 100 μg/day, orally under the tongue or sub cutaneous injection
# Method: In Humans: Several Down syndrome children were treated with Adesh-10. Adesh-10 was administered in the amount of 100 μg/day, either orally under the tongue, or by sub cutaneous injection.
Molecule,SA11 virus titer Day 2 (simian rotavirus (SA11)) [Log TCID50/ml],SA11 virus titer Day 4 (simian rotavirus (SA11)) [Log TCID50/ml],SA11 virus titer Day 6 (simian rotavirus (SA11)) [Log TCID50/ml],SA11 virus titer Day 8 (simian rotavirus (SA11)) [Log TCID50/ml],A/TA1 virus titer Day 2 [1] [Log TCID5/ml],A/TA1 virus titer Day 4 [1] [Log TCID5/ml],A/TA1 virus titer Day 6 [1] [Log TCID5/ml],concentration toxic to PC 12 cells (PC 12 cells) [µg/mL],other results
O=C(CCn1cnc2c(=O)[nH]cnc21)Nc1ccc(C(=O)[O-])cc1.[K+] [AIT-082],,,,,,,,,efficacy in Alzheimer's patients versus placebo (Alzheimer's patients): no difference between Alzheimer's patients treated with AIT-082 and placebo
Trypsin [reference compound],6.5,7.2,8,8.5,5.6,6,6.5,,
N L G E H P V C D S (NLGEHPVCDS; CORRESPONDS TO POSITIONS 1-10 OF SEQ. ID. NO. 1) [Adesh-10],3,6,6.5,8,4,5.1,6.2,> 100,"concentration required to produce neurites on PC12 cells (PC12 cells): 1 µg/mL; NGF concentration in organ, Treated: Bone (NGF; Bone, one year old male mice, organs 2 days after treatment): 900 ELISA titer/100 μl; NGF concentration in organ, Treated: Brain (NGF; Brain, one year old male mice, organs 2 days after treatment): 2400 ELISA titer/100 μl; NGF concentration in organ, Treated: Heart (NGF; Heart, one year old male mice, organs 2 days after treatment): 2400 ELISA titer/100 μl; NGF concentration in organ, Treated: Kidney (NGF; Kidney, one year old male mice, organs 2 days after treatment): 1800 ELISA titer/100 μl; NGF concentration in organ, Treated: Liver (NGF; Liver, one year old male mice, organs 2 days after treatment): 2400 ELISA titer/100 μl; NGF concentration in organ, Treated: Lung (NGF; Lung, one year old male mice, organs 2 days after treatment): 1800 ELISA titer/100 μl; NGF concentration in organ, Treated: Muscle (NGF; Muscle, one year old male mice, organs 2 days after treatment): 2400 ELISA titer/100 μl; NGF concentration in organ, Treated: Pancreas (NGF; Pancreas, one year old male mice, organs 2 days after treatment): 1200 ELISA titer/100 μl; NGF concentration in organ, Treated: Salivary (NGF; Salivary, one year old male mice, organs 2 days after treatment): 1200 ELISA titer/100 μl; NGF concentration in organ, Treated: Skin (NGF; Skin, one year old male mice, organs 2 days after treatment): 1200 ELISA titer/100 μl; NGF concentration in organ, Treated: Spleen (NGF; Spleen, one year old male mice, organs 2 days after treatment): 1200 ELISA titer/100 μl; NGF concentration in organ, Treated: Testis (NGF; Testis, one year old male mice, organs 2 days after treatment): 1800 ELISA titer/100 μl; increase in NGF level versus control (NGF; brain, muscle and testis): twofold increase; clinical effect in Down's syndrome children (Down syndrome children): good results; also recorded: improved physical, vocal, learning and memory abilities"
B1,4,7,7.5,8.2,5,5.5,6.1,5,concentration producing neurites on PC12 cells (PC12 cells): 5 ng/mL
